Measurements taken from PubChem BioAssay AID2060883 (Molecular Pharmacology Branch, DTP, NCI, 2025).
Values joined by “and” are separate entries in the source; they are usually repeats but may differ in a detail not shown here. Equal values may be shown once.

Test system: 843782-103-R-J1-PDC complex spheroid viability
Experiment: Anticancer human tumor 843782-103-R-J1-PDC patient-derived lung adenocarcinoma cell line growth inhibition [RAS]
Settings: for viability, T/C: stronger effect = lower value
Method in brief: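 Multi-cell-type spheroids: tumor cells plus HUVEC endothelial cells and mesenchymal stem cells. RAS-pathway inhibitors were combined with targeted agents, each dosed in half-log steps down from clinical Cmax, or from 10 microM when Cmax was unknown.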

[1] = curve of first compound, second compound 0.0316 µM
[2] = curve of first compound, second compound 0.1 µM
[3] = curve of first compound, second compound 0.316 µM
[4] = curve of first compound, second compound 1 µM
[5] = curve of first compound, second compound 3.16 µM
[6] = curve of first compound, second compound 10 µM
[7] = second compound 0.0316 µM, first compound 0.0316 µM
[8] = second compound 0.0316 µM, first compound 0.1 µM
[9] = second compound 0.0316 µM, first compound 0.316 µM
[10] = second compound 0.0316 µM, first compound 1 µM
[11] = second compound 0.1 µM, first compound 0.0316 µM
[12] = second compound 0.1 µM, first compound 0.1 µM
[13] = second compound 0.1 µM, first compound 0.316 µM
[14] = second compound 0.1 µM, first compound 1 µM
[15] = second compound 0.316 µM, first compound 0.0316 µM
[16] = second compound 0.316 µM, first compound 0.1 µM
[17] = second compound 0.316 µM, first compound 0.316 µM
[18] = second compound 0.316 µM, first compound 1 µM
[19] = second compound 1 µM, first compound 0.0316 µM
[20] = second compound 1 µM, first compound 0.1 µM
[21] = second compound 1 µM, first compound 0.316 µM
[22] = second compound 1 µM, first compound 1 µM
[23] = second compound 3.16 µM, first compound 0.0316 µM
[24] = second compound 3.16 µM, first compound 0.1 µM
[25] = second compound 3.16 µM, first compound 0.316 µM
[26] = second compound 3.16 µM, first compound 1 µM
[27] = second compound 10 µM, first compound 0.0316 µM
[28] = second compound 10 µM, first compound 0.1 µM
[29] = second compound 10 µM, first compound 0.316 µM
[30] = second compound 10 µM, first compound 1 µM
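Also: viability read after seven days of compound exposure.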

NC1c2ccccc2OC12CCN(c1cnc3c(N4CCCc5ncccc54)n[nH]c3n1)CC2 (configuration not stated) + C#Cc1c(F)ccc2cc(O)cc(-c3ncc4c(N5CC6CCC(C5)N6)nc(OCC56CCCN5CC(F)C6)nc4c3F)c12
IC50 [1]: 1160 nM | IC50 [2]: 642 nM | IC50 [3]: 231 nM | IC50 [4]: 72.1 nM | IC50 [5]: < 31.6 nM | IC50 [6]: < 31.6 nM | viability, T/C [7]: 92.1% | viability, T/C [8]: 81.1% | viability, T/C [9]: 60.6% | viability, T/C [10]: 53% | viability, T/C (second compound 0.0316 µM, first compound 3.16 µM): 40.9% | viability, T/C (second compound 0.0316 µM, first compound 10 µM): 25.8% | viability, T/C [11]: 87.8% | viability, T/C [12]: 69.8% | viability, T/C [13]: 54.9% | viability, T/C [14]: 46.2% | viability, T/C (second compound 0.1 µM, first compound 3.16 µM): 37.9% | viability, T/C (second compound 0.1 µM, first compound 10 µM): 22.5% | viability, T/C [15]: 82% | viability, T/C [16]: 61.8% | viability, T/C [17]: 42.8% | viability, T/C [18]: 37.2% | viability, T/C (second compound 0.316 µM, first compound 3.16 µM): 29.4% | viability, T/C (second compound 0.316 µM, first compound 10 µM): 21.2% | viability, T/C [19]: 69% | viability, T/C [20]: 38.5% | viability, T/C [21]: 32.9% | viability, T/C [22]: 26.8% | viability, T/C (second compound 1 µM, first compound 3.16 µM): 21.3% | viability, T/C (second compound 1 µM, first compound 10 µM): 14.9% | viability, T/C [23]: 43.3% | viability, T/C [24]: 25.7% | viability, T/C [25]: 22.9% | viability, T/C [26]: 18.8% | viability, T/C (second compound 3.16 µM, first compound 3.16 µM): 21.1% | viability, T/C (second compound 3.16 µM, first compound 10 µM): 15.9% | viability, T/C [27]: 30.3% | viability, T/C [28]: 16.4% | viability, T/C [29]: 24% | viability, T/C [30]: 19.1% | viability, T/C (second compound 10 µM, first compound 3.16 µM): 17.5% | viability, T/C (second compound 10 µM, first compound 10 µM): 9.27%

O=C(c1ccc(F)c(F)c1Nc1ccc(I)cc1F)N1CC(O)([C@@H]2CCCCN2)C1 + CCn1c(-c2cccnc2C(C)OC)c2c3cc(ccc31)N1CCOC(CC(NC(=O)C(C(C)C)N(C)C(=O)C3(F)CCN(C(=O)C#CC(C)(C)N(C)C)CC3)C(=O)N3CCCC(N3)C(=O)OCC(C)(C)C2)C1
IC50 (curve of first compound, second compound 0.000949 µM): 18.2 nM | IC50 (curve of first compound, second compound 0.003 µM): 17.4 nM | IC50 (curve of first compound, second compound 0.00949 µM): 22 nM | IC50 (curve of first compound, second compound 0.03 µM): 14.8 nM | IC50 (curve of first compound, second compound 0.0949 µM): 24.3 nM | IC50 (curve of first compound, second compound 0.3 µM): 16.2 nM | viability, T/C (second compound 0.000949 µM, first compound 0.00316 µM): 74.1% | viability, T/C (second compound 0.000949 µM, first compound 0.01 µM): 56.1% | viability, T/C (second compound 0.000949 µM, first compound 0.0316 µM): 42.7% | viability, T/C (second compound 0.000949 µM, first compound 0.1 µM): 31.9% | viability, T/C (second compound 0.000949 µM, first compound 0.316 µM): 20.1% | viability, T/C (second compound 0.000949 µM, first compound 1 µM): 11.8% | viability, T/C (second compound 0.003 µM, first compound 0.00316 µM): 72.2% | viability, T/C (second compound 0.003 µM, first compound 0.01 µM): 49.3% | viability, T/C (second compound 0.003 µM, first compound 0.0316 µM): 43.2% | viability, T/C (second compound 0.003 µM, first compound 0.1 µM): 35.1% | viability, T/C (second compound 0.003 µM, first compound 0.316 µM): 20.1% | viability, T/C (second compound 0.003 µM, first compound 1 µM): 9.69% | viability, T/C (second compound 0.00949 µM, first compound 0.00316 µM): 69.7% | viability, T/C (second compound 0.00949 µM, first compound 0.01 µM): 58% | viability, T/C (second compound 0.00949 µM, first compound 0.0316 µM): 47.1% | viability, T/C (second compound 0.00949 µM, first compound 0.1 µM): 30.9% | viability, T/C (second compound 0.00949 µM, first compound 0.316 µM): 19.2% | viability, T/C (second compound 0.00949 µM, first compound 1 µM): 11.9% | viability, T/C (second compound 0.03 µM, first compound 0.00316 µM): 58.6% | viability, T/C (second compound 0.03 µM, first compound 0.01 µM): 58.1% | viability, T/C (second compound 0.03 µM, first compound 0.0316 µM): 38.9% | viability, T/C (second compound 0.03 µM, first compound 0.1 µM): 27.9% | viability, T/C (second compound 0.03 µM, first compound 0.316 µM): 20.1% | viability, T/C (second compound 0.03 µM, first compound 1 µM): 12.3% | viability, T/C (second compound 0.0949 µM, first compound 0.00316 µM): 75% | viability, T/C (second compound 0.0949 µM, first compound 0.01 µM): 61.4% | viability, T/C (second compound 0.0949 µM, first compound 0.0316 µM): 43.7% | viability, T/C (second compound 0.0949 µM, first compound 0.1 µM): 36.5% | viability, T/C (second compound 0.0949 µM, first compound 0.316 µM): 22.9% | viability, T/C (second compound 0.0949 µM, first compound 1 µM): 11.7% | viability, T/C (second compound 0.3 µM, first compound 0.00316 µM): 62.9% | viability, T/C (second compound 0.3 µM, first compound 0.01 µM): 59.7% | viability, T/C (second compound 0.3 µM, first compound 0.0316 µM): 38.2% | viability, T/C (second compound 0.3 µM, first compound 0.1 µM): 26.8% | viability, T/C (second compound 0.3 µM, first compound 0.316 µM): 23.2% | viability, T/C (second compound 0.3 µM, first compound 1 µM): 13.9%

C=CC(=O)N1CCN(c2nc(OCC3CCCN3C)nc3c(F)c(-c4nc(N)cc(C)c4C(F)(F)F)c(Cl)cc23)C(C)C1 (configuration not stated) + C#Cc1c(F)ccc2cc(O)cc(-c3ncc4c(N5CC6CCC(C5)N6)nc(OCC56CCCN5CC(F)C6)nc4c3F)c12
IC50 [1]: > 1000 nM | IC50 [2]: > 1000 nM | IC50 [3]: > 1000 nM | IC50 [4]: > 1000 nM | IC50 [5]: > 1000 nM | IC50 [6]: < 3.16 nM | viability, T/C (second compound 0.0316 µM, first compound 0.00316 µM): 89.9% | viability, T/C (second compound 0.0316 µM, first compound 0.01 µM): 81.1% | viability, T/C [7]: 83.3% | viability, T/C [8]: 76.3% | viability, T/C [9]: 88.4% | viability, T/C [10]: 79.5% | viability, T/C (second compound 0.1 µM, first compound 0.00316 µM): 89.7% | viability, T/C (second compound 0.1 µM, first compound 0.01 µM): 83.1% | viability, T/C [11]: 74.4% | viability, T/C [12]: 78.1% | viability, T/C [13]: 69.8% | viability, T/C [14]: 80.6% | viability, T/C (second compound 0.316 µM, first compound 0.00316 µM): 86.5% | viability, T/C (second compound 0.316 µM, first compound 0.01 µM): 68.1% | viability, T/C [15]: 74.8% | viability, T/C [16]: 78.8% | viability, T/C [17]: 77.4% | viability, T/C [18]: 76.1% | viability, T/C (second compound 1 µM, first compound 0.00316 µM): 81% | viability, T/C (second compound 1 µM, first compound 0.01 µM): 74.1% | viability, T/C [19]: 79.3% | viability, T/C [20]: 69.3% | viability, T/C [21]: 65.8% | viability, T/C [22]: 68.5% | viability, T/C (second compound 3.16 µM, first compound 0.00316 µM): 62.2% | viability, T/C (second compound 3.16 µM, first compound 0.01 µM): 67.2% | viability, T/C [23]: 70% | viability, T/C [24]: 64.3% | viability, T/C [25]: 60.1% | viability, T/C [26]: 64.5% | viability, T/C (second compound 10 µM, first compound 0.00316 µM): 39.6% | viability, T/C (second compound 10 µM, first compound 0.01 µM): 57% | viability, T/C [27]: 44.8% | viability, T/C [28]: 49.7% | viability, T/C [29]: 40.5% | viability, T/C [30]: 40.5%

CCC(CC)c1cc(NC2CCC(N)C2)n2nccc2n1 (configuration not stated)
viability, T/C (compound 0.0316 µM): 114% and 109% and 101% (2×) | viability, T/C (compound 0.1 µM): 107% [middle of 4 runs] | viability, T/C (compound 0.316 µM): 101% [middle of 4 runs] | viability, T/C (compound 3.16 µM): 2.11% [middle of 4 runs] | viability, T/C (compound 10 µM): 0.82% [middle of 4 runs] | IC50 (curve of compound): 1.78 µM [middle of 4 runs]
